EC50 data for 20 compounds are collected here from US20230391760A1, “HETEROCYCLIC GLP-1 AGONISTS” (Gasherbrum Bio, Inc., priority 2020, published 2023).

The term pEC50 denotes the EC50 on a negative log10 scale, so that one unit is a factor of ten.

pEC50: −log10 of the molar value.

The target of this assay is GLP-1 Receptor (Homo sapiens, UniProt P43220). As to the kind of experiment: GLP-1R agonist cAMP stimulation assay (HEK293/GLP1R/CRE-LUC cells, cAMP dynamic 2 Kit). Format: cell-based. To be noted: HEK293/CRE-Luc cell line stably expressing the GLP-1 Receptor, 30 min at 37° C. On the procedure: Activation of GLP-1 receptor is known to stimulate cyclic AMP (cAMP) production in cells which indicates primary coupling to the Gαs subunit of the G protein heterotrimeric complex. […] To optimize functional activity directed toward Gαs coupling, a HEK293/CRE-Luc cell line developed by HDB stably expressing the GLP-1 Receptor was used. 200×concentration of compound working solutions were prepared (Agilent Technologies Bravo) with 1/2 log serial dilution in 384-well Echo LDV plate (Labcyte, Cat #LP-0200). 50 nL/well 200× concentration of compound working solutions were moved to 384-well white low volume plate (Greiner,Cat #784075) using Labcyte ECHO550. 1×10^5 cells/mL HEK293/GLP1R/CRE-LUC(HD Biosciences) cell suspensions prepared with assay buffer[DPBS containing 0.5 mM IBMX(Sigma, Cat #15879) and 0.1% BSA (GENVIEW, Cat #FA016-100 g)], 10 uL cell suspensions were added to each well of previous generated assay plate which already contains 50 nl compound at 200×concentration using ThermoFisher Multidrop Combi (1000 cells/well). Seal the plate and incubate at 37° C. with 5% CO2 for 30 min. After incubation the cAMP assay signal was generated using cAMP dynamic 2 Kit (Cisbio). 5 μL cAMP-d2 working solution was added to each well, followed with 5 μL Anti-cAMP antibody-cryptate working solution added to each well using ThermoFisher Multidrop Combi. Incubate at room temperature for 1 hour protected from light.
Sequence of GLP-1 Receptor (P43220 24-463, species assumed): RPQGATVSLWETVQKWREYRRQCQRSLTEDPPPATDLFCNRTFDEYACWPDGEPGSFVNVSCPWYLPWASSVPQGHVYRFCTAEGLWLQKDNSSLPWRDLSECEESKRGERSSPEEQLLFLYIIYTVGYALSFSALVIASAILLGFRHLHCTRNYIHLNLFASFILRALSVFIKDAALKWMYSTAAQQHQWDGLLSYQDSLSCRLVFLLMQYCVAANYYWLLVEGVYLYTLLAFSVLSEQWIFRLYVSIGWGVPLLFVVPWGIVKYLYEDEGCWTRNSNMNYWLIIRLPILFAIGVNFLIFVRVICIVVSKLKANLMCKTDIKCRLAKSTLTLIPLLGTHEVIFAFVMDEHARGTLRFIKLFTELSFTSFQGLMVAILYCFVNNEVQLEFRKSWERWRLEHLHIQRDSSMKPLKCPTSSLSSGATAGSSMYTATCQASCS
Compound `C[C@]1(c2ccc(Cl)cc2F)Oc2cccc(C3CCN(Cc4nc5cc(-c6noc(=O)[nH]6)cnc5n4C[C@@H]4CCO4)CC3)c2O1` [Compound 262, 3-[2-({4-[(2S)-2-(4-chloro-2-fluorophenyl)-2-methyl-2H-1,3-benzodioxol-4-yl]piperidin-1-yl}methyl)-3-{[(2S)-oxetan-2-yl]methyl}-3H-imidazo[4,5-b]pyridin-6-yl]-4,5-dihydro-1,2,4-oxadiazol-5-one] showed a pEC50 of 10.15.

In turn, `N#Cc1ccc(COc2nc(C3CCN(Cc4nc5cc(-c6nnc(C(F)(F)F)[nH]6)ncc5n4C[C@@H]4CCO4)CC3)ccc2F)c(F)c1` [Compound 485a, 3-fluoro-4-{[(3-fluoro-6-{1-[(3-{[(2S)-oxetan-2-yl]methyl}-6-[5-(trifluoromethyl)-4H-1,2,4-triazol-3-yl]-3H-imidazo[4,5-c]pyridin-2-yl)methyl]piperidin-4-yl}pyridin-2-yl)oxy]methyl}benzonitrile] gave a negative-log EC50 (pEC50) of 11.02.

The compound `Fc1cc(Cl)ccc1COc1cc(N2CCN(Cc3nc4cc(-c5nnc(C(F)(F)F)[nH]5)ncc4n3C[C@@H]3CCO3)CC2)ccc1F` [Compound 456a, 1-{3-[(4-chloro-2-fluorophenyl)methoxy]-4-fluorophenyl}-4-[(3-{[(2S)-oxetan-2-yl]methyl}-6-[5-(trifluoromethyl)-4H-1,2,4-triazol-3-yl]-3H-imidazo[4,5-c]pyridin-2-yl)methyl]piperazine] had a pEC50 of 10.07.

`CO[C@H](C)Cn1c(CN2CCC(c3cccc4c3OC(C)(c3ccc(Cl)cn3)O4)CC2)nc2cc(-c3nnc(C(F)(F)F)[nH]3)ncc21` (stereo partly drawn) [Compound 428a, 5-chloro-2-{4-[1-({3-[(2R)-2-methoxypropyl]-6-[5-(trifluoromethyl)-4H-1,2,4-triazol-3-yl]-3H-imidazo[4,5-c]pyridin-2-yl}methyl)piperidin-4-yl]-2-methyl-2H-1,3-benzodioxol-2-yl}pyridine]: the pEC50 is 9.44.

Compound `Fc1cc(Cl)ccc1COc1cccc(C2CCN(Cc3nc4cc(-c5nnc(C(F)(F)F)[nH]5)ncc4n3C[C@@H]3CCO3)CC2F)n1` (stereo partly drawn) [Compound 499a, 2-[(4-chloro-2-fluorophenyl)methoxy]-6-[(3,4-trans)-3-fluoro-1-[(3-{[(2S)-oxetan-2-yl]methyl}-6-[5-(trifluoromethyl)-4H-1,2,4-triazol-3-yl]-3H-imidazo[4,5-c]pyridin-2-yl)methyl]piperidin-4-yl]pyridine] showed a pEC50 of 10.40.

Compound `CC(C(=O)Nc1ccc2c(c1)nc(CN1CCC(c3cccc(OCc4ccc(Cl)cc4F)n3)CC1)n2C[C@@H]1CCO1)n1ccnc1` (stereo partly drawn) [Compound 195a, N-{2-[(4-{6-[(4-chloro-2-fluorophenyl)methoxy]pyridin-2-yl}piperidin-1-yl)methyl]-1-{[(2S)-oxetan-2-yl]methyl}-1H-1,3-benzodiazol-5-yl}-2-(1H-imidazol-1-yl)propanamide] had a pEC50 of 9.20.

`CC1(c2ccc(Cl)cn2)Oc2cccc(C3CCN(Cc4nc5cc(-c6n[nH]c(C(F)(F)F)n6)cnc5n4C[C@@H]4CCO4)CC3)c2O1` (mixture of isomers) [Compound 333a, 5-chloro-2-(2-methyl-4-{1-[(3-{[(2S)-oxetan-2-yl]methyl}-6-[5-(trifluoromethyl)-4H-1,2,4-triazol-3-yl]-3H-imidazo[4,5-b]pyridin-2-yl)methyl]piperidin-4-yl}-2H-1,3-benzodioxol-2-yl)pyridine]: the pEC50 is 10.52.

Turning to `CC1(c2ccc(C#N)cc2F)Oc2cccc(C3CCN(Cc4nc5cc(-c6noc(=O)[nH]6)cnc5n4C[C@@H]4CCO4)CC3)c2O1` (stereo partly drawn) [Compound 329a, 3-fluoro-4-(2-methyl-4-{1-[(3-{[(2S)-oxetan-2-yl]methyl}-6-(5-oxo-4,5-dihydro-1,2,4-oxadiazol-3-yl)-3H-imidazo[4,5-b]pyridin-2-yl)methyl]piperidin-4-yl}-2H-1,3-benzodioxol-2-yl)benzonitrile], the negative-log EC50 (pEC50) was 9.60.

In the case of `CO[C@H](C)Cn1c(CN2CCC(c3cccc4c3O[C@@](C)(c3ccc(Cl)cc3F)O4)CC2)nc2cc(-c3noc(=O)[nH]3)cnc21` [Compound 397a, 3-[2-({4-[(2S)-2-(4-chloro-2-fluorophenyl)-2-methyl-2H-1,3-benzodioxol-4-yl]piperidin-1-yl}methyl)-3-[(2R)-2-methoxypropyl]-3H-imidazo[4,5-b]pyridin-6-yl]-4,5-dihydro-1,2,4-oxadiazol-5-one], the pEC50 is 8.89.

Turning to `Fc1cc(Cl)ccc1COc1cccc(C2CCN(Cc3nc4cc(-c5ccn[nH]5)ccc4n3C[C@@H]3CCO3)CC2)n1` [Compound 215a, 2-[(4-{6-[(4-chloro-2-fluorophenyl)methoxy]pyridin-2-yl}piperidin-1-yl)methyl]-1-{[(2S)-oxetan-2-yl]methyl}-5-(1H-pyrazol-5-yl)-1H-1,3-benzodiazole], the negative-log EC50 (pEC50) is 8.57.

`C[C@]1(c2ccc(Cl)cc2F)Oc2cccc(C3CCN(Cc4nc5cc(C(=O)O)nnc5n4C[C@@H]4CCO4)CC3)c2O1` [Compound 431a, 6-({4-[(2S)-2-(4-chloro-2-fluorophenyl)-2-methyl-2H-1,3-benzodioxol-4-yl]piperidin-1-yl}methyl)-7-{[(2S)-oxetan-2-yl]methyl}-7H-imidazo[4,5-c]pyridazine-3-carboxylic acid] showed a pEC50 of 9.96.

Regarding `O=C(NC1CC1)c1ccc2c(c1)nc(CN1CCC(c3cccc(OCc4ccc(Cl)cc4F)n3)CC1)n2C[C@@H]1CCO1` [Compound 396a, 2-[(4-{6-[(4-chloro-2-fluorophenyl)methoxy]pyridin-2-yl}piperidin-1-yl)methyl]-N-cyclopropyl-1-{[(2S)-oxetan-2-yl]methyl}-1H-1,3-benzodiazole-5-carboxamide], the pEC50 was 8.49.

Consider `CC(=O)Nc1ccc2c(c1)nc(CN1CC=C(c3cccc(OCc4ccc(Cl)cc4F)n3)CC1)n2C[C@@H]1CCO1` [Compound 135a, N-{2-[(4-{6-[(4-chloro-2-fluorophenyl)methoxy]pyridin-2-yl}-1,2,3,6-tetrahydropyridin-1-yl)methyl]-1-{[(2S)-oxetan-2-yl]methyl}-1H-1,3-benzodiazol-5-yl}acetamide], for which the negative logarithm of the EC50 (pEC50) was 9.19.

As for `Cc1cn(-c2ccc3c(c2)nc(CN2CCC(c4cccc(OCc5ccc(Cl)cc5F)n4)CC2)n3C[C@@H]2CCO2)nn1` [Compound 210a, 2-[(4-{6-[(4-chloro-2-fluorophenyl)methoxy]pyridin-2-yl}piperidin-1-yl)methyl]-5-(4-methyl-1H-1,2,3-triazol-1-yl)-1-{[(2S)-oxetan-2-yl]methyl}-1H-1,3-benzodiazole], the negative-log EC50 (pEC50) was 8.38.

`Cc1ccnn1C(C)C(=O)Nc1ccc2c(c1)nc(CN1CCC(c3cccc(OCc4ccc(Cl)cc4F)n3)CC1)n2C[C@@H]1CCO1` (stereo partly drawn) [Compound 185a, N-{2-[(4-{6-[(4-chloro-2-fluorophenyl)methoxy]pyridin-2-yl}piperidin-1-yl)methyl]-1-{[(2S)-oxetan-2-yl]methyl}-1H-1,3-benzodiazol-5-yl}-2-(5-methyl-1H-pyrazol-1-yl)propanamide] had a pEC50 of 8.28.

The compound `CC1(c2ccc(Cl)cn2)Oc2cccc(C3CCN(Cc4nc5cc(-c6nnc(C7CC7)[nH]6)ccc5n4C[C@@H]4CCO4)CC3)c2O1` (stereo partly drawn) [Compound 270a, 2-({4-[2-(5-chloropyridin-2-yl)-2-methyl-2H-1,3-benzodioxol-4-yl]piperidin-1-yl}methyl)-5-(5-cyclopropyl-4H-1,2,4-triazol-3-yl)-1-{[(2S)-oxetan-2-yl]methyl}-1H-1,3-benzodiazole] showed a pEC50 of 9.07.

On to `O=C1OCCN1c1ccc2c(c1)nc(CN1CCC(c3cccc(OCc4ccc(Cl)cc4F)n3)CC1)n2C[C@@H]1CCO1` [Compound 120a, 3-{2-[(4-{6-[(4-chloro-2-fluorophenyl)methoxy]pyridin-2-yl}piperidin-1-yl)methyl]-1-{[(2S)-oxetan-2-yl]methyl}-1H-1,3-benzodiazol-5-yl}-1,3-oxazolidin-2-one], for which the pEC50 was 8.40.

Regarding `Fc1cc(Cl)ccc1COc1cc(N2CCN(Cc3nc4cc(-c5nnc(C(F)(F)F)[nH]5)nnc4n3C[C@@H]3CCO3)CC2)ccc1F` [Compound 483a, 1-{3-[(4-chloro-2-fluorophenyl)methoxy]-4-fluorophenyl}-4-[(7-{[(2S)-oxetan-2-yl]methyl}-3-[5-(trifluoromethyl)-4H-1,2,4-triazol-3-yl]-7H-imidazo[4,5-c]pyridazin-6-yl)methyl]piperazine], the negative logarithm of the EC50 (pEC50) is 9.29.

For the compound `N#Cc1ccc(COc2cc(C3CCN(Cc4nc5cc(-c6nnc(C(F)(F)F)[nH]6)nnc5n4C[C@@H]4CCO4)CC3)ccc2F)c(F)c1` [Compound 521a, 3-fluoro-4-[(2-fluoro-5-{1-[(7-{[(2S)-oxetan-2-yl]methyl}-3-[5-(trifluoromethyl)-4H-1,2,4-triazol-3-yl]-7H-imidazo[4,5-c]pyridazin-6-yl)methyl]piperidin-4-yl}phenoxy)methyl]benzonitrile], the negative-log EC50 (pEC50) was 9.29.

Compound `Cc1cncc(C)c1C(=O)Nc1ccc2c(c1)nc(CN1CCC(c3cccc(OCc4ccc(Cl)cc4F)n3)CC1)n2C[C@@H]1CCO1` [Compound 191a, N-{2-[(4-{6-[(4-chloro-2-fluorophenyl)methoxy]pyridin-2-yl}piperidin-1-yl)methyl]-1-{[(2S)-oxetan-2-yl]methyl}-1H-1,3-benzodiazol-5-yl}-3,5-dimethylpyridine-4-carboxamide] showed a pEC50 of 8.06.
